pIC50: −log10 of the molar value. Activity calls are given as the source filed them. The rule behind the calls is not given here.
Experiments:
[1] = molecular target: cGMP-specific 3',5'-cyclic phosphodiesterase (Homo sapiens, UniProt O76074)
[2] = Oral bioavailability in Sprague-Dawley rat by LC-MS/MS analysis; assay type: ADME, organism-based; conditions: in vivo
[3] = Oral bioavailability in rat; assay type: ADME, organism-based; conditions: in vivo
Rattus norvegicus [4] = experiment: Reduction in MCT-induced increase in mean pulmonary arterial pressure in Wistar rat model of monocrotaline pulmonary arterial hypertension assessed as mean pulmonary arterial pressure at 10 mg/kg, po for 3 weeks (reference value: 32.74 mmHg); assay type: functional
Rattus norvegicus [5] = species on record: Rattus norvegicus; conditions: Wistar, 10 mg/kg
[6] = Half life in rat liver microsomes; assay type: ADME, microsome
[7] = Half life in human microsomes; assay type: ADME, microsome; conditions: liver microsomes
Liver [8] = experiment: Intrinsic clearance in rat liver microsomes; assay type: ADME, microsome
Liver [9] = experiment: Intrinsic clearance in human liver microsomes; assay type: ADME, microsome
[10] = Apparent clearance in rat liver microsomes; assay type: ADME, microsome; conditions: read-out: CLH(app)
[11] = Apparent clearance in human microsomes; assay type: ADME, microsome; conditions: liver microsomes, read-out: CLH(app)
[12] = Hepatic clearance in rat liver microsomes; assay type: ADME, microsome
[13] = Hepatic clearance in human microsomes; assay type: ADME, microsome; conditions: liver microsomes
[14] = Hepatic extraction ratio in rat liver microsomes; assay type: ADME, microsome; conditions: read-out: ERH
[15] = Hepatic extraction ratio in human microsomes; assay type: ADME, microsome; conditions: liver microsomes, read-out: ERH
Liver [16] = experiment: Drug metabolism in rat liver microsomes assessed as metabolic rate; assay type: ADME, microsome
Liver [17] = experiment: Drug metabolism in human liver microsomes assessed as metabolic rate; assay type: ADME, microsome

Structure (SMILES)	pIC50 [1]	further results
Cc1ccc(-c2[nH]c(Cc3ccc(O)cc3)c3oc4ccccc4c(=O)c23)cc1	< 7.00	
O=c1c2ccccc2oc2c(Cc3ccc(O)cc3)[nH]c(-c3ccccn3)c12	7.68	
O=c1c2ccccc2oc2c(Cc3ccc(O)cc3)[nH]c(-c3ccc(Cl)cn3)c12	7.30	
O=c1c2ccccc2oc2c(Cc3ccc(O)cc3)[nH]c(-c3cccnc3O)c12	< 7.00	
O=c1c2ccccc2oc2c(Cc3ccc(O)cc3)[nH]c(-c3ccncc3Cl)c12	< 7.00	
CC(C)N1CCN(C(=O)c2[nH]c(Cc3ccc(O)cc3)c3oc4ccccc4c(=O)c23)CC1	< 7.00	
O=c1c2ccccc2oc2c(Cc3ccc(O)cc3)[nH]c(-c3nccs3)c12	8.27	bioavailability [2]: < 10%
O=C(c1[nH]c(Cc2ccc(O)cc2)c2oc3ccccc3c(=O)c12)N1CCOCC1	< 7.00	
COc1ncccc1-c1[nH]c(Cc2ccc(O)cc2)c2oc3ccccc3c(=O)c12	< 7.00	
O=c1c2ccccc2oc2c(Cc3ccc(O)cc3)[nH]c(-c3cccnc3Cl)c12	< 7.00	
O=C(c1[nH]c(Cc2ccc(O)cc2)c2oc3ccccc3c(=O)c12)N1CCN(C2CC2)CC1	< 7.00	
COC(=O)c1[nH]c(Cc2ccc(O)cc2)c2oc3ccccc3c(=O)c12	7.51	
CCCc1nn(C)c2c(=O)[nH]c(-c3cc(S(=O)(=O)N4CCN(C)CC4)ccc3OCC)nc12.O=C(O)CC(O)(CC(=O)O)C(=O)O [SILDENAFIL CITRATE]		bioavailability [3]: 41%; Activity (Rattus norvegicus [4]): 22.13 mmHg; inhibition (Rattus norvegicus [5]): Active
O=c1c2ccccc2oc2c(Cc3ccc(C(F)(F)F)cc3)[nH]c(-c3nccs3)c12	7.52	
O=c1c2ccccc2oc2c(Cc3ccc(O)cc3)[nH]c(-c3cccnc3)c12	7.11	
O=c1c2ccccc2oc2c(Cc3ccc(O)cc3)[nH]c(-c3ccncn3)c12	7.25	
O=c1c2ccccc2oc2c(Cc3ccc(O)cc3)[nH]c(-c3ccncc3)c12	< 7.00	
Cc1ncc2n1-c1ccc(Cl)cc1C(c1ccccc1F)=NC2 [MIDAZOLAM]		half-life [6]: 2.4 min; half-life [7]: 2.7 min; CLH (Liver [8]): 574 µL/min/mg; CLH (Liver [9]): 506.4 µL/min/mg; CLint scaled [10]: 1040 mL/min/kg; CLint scaled [11]: 488 mL/min/kg; CLhep predicted [12]: 53.2 mL/min/kg; CLhep predicted [13]: 19.2 mL/min/kg; hepatic extraction ratio [14]: 0.95; hepatic extraction ratio [15]: 0.96; K (Liver [16]): 0.2877; K (Liver [17]): 0.2532
CC(C)(C)Oc1ccc(Cc2[nH]c(-c3nccs3)c3c(=O)c4ccccc4oc23)cc1	< 7.00	
O=c1c2ccccc2oc2c(Cc3ccc(O)cc3)[nH]c(-c3ccccc3F)c12	7.80	
Cc1nnc(-c2[nH]c(Cc3ccc(O)cc3)c3oc4ccccc4c(=O)c23)o1	< 7.00	
O=c1c2ccccc2oc2c(Cc3ccc(O)cc3)[nH]c(-c3cc(Cl)ccn3)c12	< 7.00	

From ChEMBL document CHEMBL4011656, “Discovery and Optimization of Chromeno[2,3-c]pyrrol-9(2H)-ones as Novel Selective and Orally Bioavailable Phosphodiesterase 5 Inhibitors for the Treatment of Pulmonary Arterial Hypertension” (J Med Chem, 2017)
